# Results from patent publication US20240210394A1, “MICROORGANISM CAPTURE FROM ANTIMICROBIAL-CONTAINING SOLUTION” (MOMENTUM BIOSCIENCE LIMITED, priority 2019, published 2024).
# Several values for one entry are separate records, joined by “and”; a condition that tells them apart may be missing. Equal entries are not always repeated.
# Test system: E. coli
# Experiment: ETGA (microbial polymerase) qPCR after microbial capture (Magnitor test)
# Assay type: cell-based
# Set-up: ETGA results CV: unit not given here
# Experimental: The Magnitor test consists of two microbial detection read-outs: • ETGA: detection of microbial polymerase from intact microbial cells • Confirm: detection of microbial DNA according to gram status (Gram Negative, Gram Positive, or Candida) […]
# • E. coli o/n liquid culture 1E-3 dilution spiked into blood broth (6.25 μL o/n per mL: 244 μL o/n+39 mL blood broth) and […] out-growth performed in shaking incubator @ 37° C., 500 rpm • Following 2-hour outgrowth, samples produced by adding 1 mL specimen to 2 mL tube containing buffer (and 15 μL BioEstapor beads (Merck, Cat #BE-M 08/0.3) for Mag Beads sample-set): triplicate E. coli (EC) and No Spike Control (NSC) samples per test condition • 100 μL TVCs performed for NSC and E. coli (including dilutions of specimen to ensure countable plates)
# • Samples centrifuged for 3 minutes at 9000×g (tube hinges facing outwards for pellet traceability) • Supernatants removed • 50 μL LM added to samples (approx. 10× pipette mixes to resuspend pellets) • Samples placed in shaking incubator at 900 rpm for 5 minutes and then 800 rpm for 55 minutes (26° C.) • Centrifuge samples at 17000×g for 1 minute before qPCR set-up
# • Samples placed in shaking incubator at 900 rpm for 30 minutes (37° C.) • Samples placed on DynaMag-2 magnetic rack for 5 minutes and then supernatants removed • 50 μL LM added to samples (approx. 10× pipette mixes to resuspend pellets) • Samples placed in shaking incubator at 900 rpm for 5 minutes and then 800 rpm for 55 minutes (26° C.) • Magnetise samples for 3 minutes before qPCR set-up Manual qPCR set-up (10 μL reactions) for ETGA mastermix only
# • E. coli o/n liquid culture set-up as standard in BacTec PLUS aerobic broth, then following day (approx. 16 hours later) 1.88 μL o/n added to 3 mL broth (equivalent to EC 1E-1 dilution added to broth at 6.25 μL/mL) and 2-hour outgrowth performed at 37° C., 500 rpm. • Following 2-hour outgrowth, E. coli preculture serially diluted (DF10) down to EC 1E-6 in either prewarmed blood-broth (BB), broth only (BO) or 1× buffer (B-BUF or Tris+NaCl). • 100 μL TVCs performed for all E. coli dilutions and NSCs
# • 1 mL samples added to 2 mL tubes containing 112 μL of binding buffer (either B-BUF or Tris+NaCl: 10× for BB and BO sample-sets; and 1× for Buffer sample-sets)+15 μL beads (prewashed in respective buffer) • 30 mins shaking (1000 rpm) @ 37° C. • 5 mins magnetisation on DynaMag-2 • All s/n removed • 1 mL WB added and tubes mixed for 2 mins @ RT (1000 rpm) • 5 mins magnetisation on Dynmag-2 • All s/n removed • 50 μL LM added to tubes off magnet (5 μL Polymerase Control (PC) added to each PC sample tube) • ETGA reaction performed: 5 mins at 1000 rpm, then 55 mins at 800 rpm @26° C. • Manual qPCR set-up for ETGA and Confirm (10 μL reactions)
# • E. coli o/n liquid cultures set-up as standard in BacTec PLUS aerobic broth (containing SPS) and Nutrient Broth (NB containing no SPS), then the following day (approx. 16 hours later) 1.88 μL o/n added to 3 mL broth (equivalent to EC 1E-1 dilution added to broth at 6.25 μL/mL) for each broth type (NB in morning and PLUS broth in afternoon), and 2-hour outgrowth incubations performed at 37° C., 500 rpm. • For each experiment (NB and PLUS), 1E-1 E. coli preculture diluted down to E. coli 1E-6 (DF10) in each 1× buffer (BUF-1 to BUF-6) • 100 μL TVCs performed using a separate EC dilution set performed in relevant broth (NB or PLUS broth) to prevent plate viability inconsistencies resulting from different 1× buffers […]
substance,measurement,setting,value
Sodium polyanethol sulfonate [SPS],ETGA results Ave. ΔCt,WB SPS 0.01 %,4.70
same,ETGA results CV,WB SPS 0.01 %,56.59
same,ETGA results,"WB SPS 0.01 %, EC 1-3 replicates, Time ZERO",27.90 Ct and 29.12 Ct and 28.14 Ct
same,ETGA results,"WB SPS 0.01 %, NSC 1-3 replicates, NoCt changed to 50 Ct",33.39 Ct and 33.06 Ct and 32.81 Ct
same,ETGA results Ave. ΔCt,WB SPS 0.02 %,7.28
same,ETGA results CV,WB SPS 0.02 %,6.16
same,ETGA results,"WB SPS 0.02 %, EC 1-3 replicates, Time ZERO",26.41 Ct and 25.88 Ct and 27.24 Ct
same,ETGA results,"WB SPS 0.02 %, NSC 1-3 replicates, NoCt changed to 50 Ct",33.20 Ct and 33.77 Ct and 34.41 Ct
same,ETGA results Ave. ΔCt,WB SPS 0.04 %,9.65
same,ETGA results CV,WB SPS 0.04 %,4.40
same,ETGA results,"WB SPS 0.04 %, EC 1-3 replicates, Time ZERO",29.31 Ct and 29.43 Ct and 29.70 Ct
same,ETGA results,"WB SPS 0.04 %, NSC 1-3 replicates, NoCt changed to 50 Ct",38.93 Ct and 39.93 Ct and 38.54 Ct
same,ETGA results Ave. ΔCt,WB SPS 0.06 %,15.74
same,ETGA results CV,WB SPS 0.06 %,0.02
same,ETGA results,"WB SPS 0.06 %, EC 1-3 replicates, Time ZERO",28.70 Ct and 28.50 Ct and 27.62 Ct
same,ETGA results,"WB SPS 0.06 %, NSC 1-3 replicates, NoCt changed to 50 Ct",44.62 Ct and 44.11 Ct and 43.30 Ct
same,ETGA results Ave. ΔCt,WB SPS 0.08 %,18.12
same,ETGA results CV,WB SPS 0.08 %,0.01
same,ETGA results,"WB SPS 0.08 %, EC 1-3 replicates, Time ZERO",32.31 Ct and 31.94 Ct and 31.40 Ct
same,ETGA results,"WB SPS 0.08 %, NSC 1-3 replicates, NoCt changed to 50 Ct",50.00 Ct
same,ETGA results Ave. EC,WB SPS 0.1 %,34.07 Ct
same,ETGA results Ave. NSC,WB SPS 0.1 %,50.00 Ct
same,ETGA results Ave. ΔCt,WB SPS 0.1 %,15.93
same,ETGA results CV,WB SPS 0.1 %,0.02
same,ETGA results,"WB SPS 0.1 %, EC 1-3 replicates, Time ZERO",33.76 Ct and 34.37 Ct and 34.08 Ct
same,ETGA results,"WB SPS 0.1 %, NSC 1-3 replicates, NoCt changed to 50 Ct",50.00 Ct
